Measurements from US20250333440A1, “Azole Tripeptides as Vasodilators” (University of Kansas, priority 2024, published 2025).

What was measured:
[1] = system: chicken embryos exposed to CoCl2; assay: rescue of embryos administered a 100-fold lethal dose of hypoxia-inducing CoCl2; format: in vivo; details: CoCl2 1 M; 2.4 g/kg on Day 6
blood vessels in the CAM [2] = assay: chick chorioallantoic membrane assay (CAM), vasculature analysed with NIH ImageJ; format: in vivo, Brown Leghorn chicken embryos; details: for effect on branching compared to DMSO control / effect on vascular density (VD) compared to DMSO control / effect on vessel diameter compared to DMSO control / effect on vessel length density (VLD) compared to DMSO control: 24 h after administration
Experimental: (§1) At day 2, the egg was carefully cleaned with isopropanol again and a small opening was carved near its air sac through which approximately 3 mL of albumin was removed. The opening was sealed with medical tape and a larger square opening of approximately 1×1 cm was carved near the center of the egg using a Dremer Stylo+ tool. The egg was further cleaned in order to remove debris and the eggshell membrane was carefully removed using sterilized tweezers. The opening was sealed using clear tape and the eggs were incubated for four more days under the same conditions after disabling the auto-turning mechanism of the incubator.
(§2) The tape covering the opening in the egg was carefully removed and the disc was carefully placed on top of the chorioallantoic membrane (e.g., CAM) using sterilized tweezers, then the opening was resealed, and the eggs were placed again in the incubator.
(§3) The paper disc was carefully removed, and the CAM was photographed. For the Miles assay approximately 100 μl of a 1% w/v solution of Evans Blue dye was injected in the CAM and infiltration of the dye into the blood vessels was analyzed using an Andonstar digital microscope equipped with a 60× magnification lens. If the dye infiltrated the blood vessels the test was considered positive. The photographs were later cropped to include only the CAM and analyzed using the NIH ImageJ software package as follows.
To analyze the extent of branching the blood vessels were carefully traced in order for the ImageJ software to be able to distinguish them for the background. The traced images were opened on the ImageJ software, converted into an 8 bit image and the threshold was adjusted to exclude any possible background signal. This process gave a binary (black and white) map of the vasculature which was then skeletonized (converted into a 1 pixel wide map) and the skeleton was analyzed to determine the number of branches and junction voxels (pixels connected to more than 2 other pixels, i.e. pixels in which the map divides).
To analyze the vascular length density and vascular density the cropped image was opened on the ImageJ software, and the Mexican Hat filter plugin was applied using a radius of 5.0. After this, the image was made binary and the Vascular Density function of the Vessel Analysis plugin was used to determine both parameters after carefully tracing the image so that only the CAM area was included on the calculation.
To analyze the vessel the cropped image was opened on the ImageJ software, and the Mexican Hat filter plugin was applied using a radius of 5.0.

blood vessels in the CAM [3] = assay: Miles assay (Evans Blue) / vascular permeability in the CAM; design: species or system Brown Leghorn chicken embryos; details: in vivo
Experimental: as §3, with “After 24 hours, the tape was removed, and the opening was further expanded until all the possible area of the CAM was exposed. The paper” for “The paper”

chicken embryos = format: in vivo, Brown Leghorn chicken embryos; design: embryo survival: unit of the concentration uncertain; details: for embryo survival: 40 (unit uncertain) dose; for embryo survival / embryos that survived: 24 h; for embryos that survived: 40 μM dose
Experimental: as §1, §2
The protocol included DMSO as a negative control and Razuprotafib as a positive control. The protocol also included the heptapeptide NLLMAAS as a negative control, which is an orthosteric antagonist of ANG-1.

[4] = single dose 40 μM (0.91 mg/kg) on Day 6, 24 h post dose

## COC(=O)[C@H](Cn1cncn1)NC(=O)[C@H](Cn1nnnc1C)NC(=O)[C@H](Cn1nnc2ccccc21)NC(=O)C(F)(F)F [Compound 1, methyl (S)-2-((S)-2-((S)-3-(1H-benzo[d][1,2,3]triazol-1-yl)-2-(2,2,2-trifluoroacetamido)propanamido)-3-(5-methyl-1H-tetrazol-1-yl)propanamido)-3-(1H-1,2,4-triazol-1-yl)propanoate]
[1]
  embryos rescued from a 100-fold lethal dose of CoCl2: 25%
Blood vessels in the CAM [2]; 40 μM
  aberrant angiogenesis or vascular remodeling (vessel density/branching mapping): did not induce
Blood vessels in the CAM [2]; CAM
  time for which activity comparable to FDA approved vasodilators at 10 minutes was maintained: 24 h
Blood vessels in the CAM [2]; [4]
  decrease in vessel length density (VLD) compared with DMSO control: 17%
  increase in vessel diameter compared with DMSO control: 124%
Blood vessels in the CAM [2]; single dose 40 μM (0.91 mg/kg) on Day 6, 24 h post dose, listed as Compound 2
  decrease in vessel length density (VLD) compared with DMSO control: 17%
Blood vessels in the CAM [3]
  integrity of vessel cell walls (Miles assay): did not weaken
  vascular permeability: did not increase permeability
Chicken embryos
  embryo survival: almost all embryos
Chicken embryos; single (Day 6) dosing at 40 μM
  indications of hazardous tumor growth or teratogenic effects: no indications
  mortality rates: not statistically significant

## COC(=O)N[C@@H](Cc1ccccc1)C(=O)N[C@@H](Cc1ccc(NS(=O)(=O)O)cc1)c1csc(-c2cccs2)n1 [Razuprotafib]
Blood vessels in the CAM [2]; 40 μM
  effect on branching compared to DMSO control: no changes were observed
  effect on vascular density (VD) compared to DMSO control: no changes were observed
  effect on vessel diameter compared to DMSO control: no changes were observed
  effect on vessel length density (VLD) compared to DMSO control: no changes were observed
Chicken embryos
  embryo survival: almost all embryos

## CCOC(=O)C1=C(COCCN)NC(C)=C(C(=O)OC)C1c1ccccc1Cl (centres unmarked) [amlodipine]
Chicken embryos
  embryos that survived: Two out of three

## O=[N+]([O-])O[C@@H]1CO[C@H]2[C@@H]1OC[C@@H]2O [isosorbide, isosorbide mononitrate]
Blood vessels in the CAM [2]; 40 μM
  effect on vascular density (VD) compared to DMSO control: did not observe effects
  effect on vessel diameter compared to DMSO control: did not observe effects
  effect on vessel length density (VLD) compared to DMSO control: did not observe effects
Chicken embryos
  embryos that survived: Two out of three

## NLLMAAS [heptapeptide NLLMAAS, an orthosteric antagonist of ANG-1 (antiangiogenic), negative control]
Blood vessels in the CAM [2]; 40 mM (1075 mg/Kg)
  effect on branching compared to DMSO control: did not have any effects
  effect on vascular density (VD) compared to DMSO control: did not have any effects
  effect on vessel diameter compared to DMSO control: did not have any effects
  effect on vessel length density (VLD) compared to DMSO control: did not have any effects

B1: ANG-1 protein: ANG-1 protein (Gibco) (protein, UniProt Q15389 16-498, looked up)
Angiopoietin-1: HIGCSNQRRSPENSGRRYNRIQHGQCAYTFILPEHDGNCRESTTDQYNTNALQRDAPHVEPDFSSQKLQHLEHVMENYTQWLQKLENYIVENMKSEMAQIQQNAVQNHTATMLEIGTSLLSQTAEQTRKLTDVETQVLNQTSRLEIQLLENSLSTYKLEKQLLQQTNEILKIHEKNSLLEHKILEMEGKHKEELDTLKEEKENLQGLVTRQTYIIQELEKQLNRATTNNSVLQKQQLELMDTVHNLVNLCTKEGVLLKGGKREEEKPFRDCADVYQAGFNKSGIYTIYINNMPEPKKVFCNMDVNGGGWTVIQHREDGSLDFQRGWKEYKMGFGNPSGEYWLGNEFIFAITSQRQYMLRIELMDWEGNRAYSQYDRFHIGNEKQNYRLYLKGHTGTAGKQSSLILHGADFSTKDADNDNCMCKCALMLTGGWWFDACGPSNLNGMFYTAGQNHGKLNGIKWHYFKGPSYSLRSTTMMIRPLDF
Blood vessels in the CAM [2]; 0.75 mg/Kg (proteins 18.87 μM, antibody 1 mg/mL)
  effects on CAM vasculature (vessel diameter, vessel length density) compared to DMSO controls: did not produce any effects significantly different
